Laboratory results reported in ChEMBL document CHEMBL5653631, “A Potent and Selective ULK1 Inhibitor Suppresses Autophagy and Sensitizes Cancer Cells to Nutrient Stress” (iScience, 2018).

Legend:
[1] = biological target: T1, Interleukin-1 receptor-associated kinase 4 (Homo sapiens) (UniProt Q9NWZ3); test: Inhibition of human recombinant IRAK4 at 40 nM in presence of ATP by radiometric assay relative to control
T1 sequence (whole entry): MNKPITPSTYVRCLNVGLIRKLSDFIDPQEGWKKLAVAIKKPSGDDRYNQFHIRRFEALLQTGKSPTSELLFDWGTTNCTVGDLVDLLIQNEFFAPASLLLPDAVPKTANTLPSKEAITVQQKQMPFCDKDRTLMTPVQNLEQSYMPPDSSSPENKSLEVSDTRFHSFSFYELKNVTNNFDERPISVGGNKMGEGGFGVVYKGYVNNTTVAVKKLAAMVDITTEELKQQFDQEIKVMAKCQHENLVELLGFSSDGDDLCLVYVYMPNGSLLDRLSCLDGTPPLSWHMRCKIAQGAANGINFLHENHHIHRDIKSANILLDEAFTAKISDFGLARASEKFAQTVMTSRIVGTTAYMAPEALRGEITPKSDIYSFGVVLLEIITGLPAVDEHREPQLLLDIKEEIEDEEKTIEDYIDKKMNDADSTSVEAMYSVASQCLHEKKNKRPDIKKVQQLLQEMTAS

[2] = biological target: Dual specificity mitogen-activated protein kinase kinase 2 (Homo sapiens) (UniProt P36507); test: Inhibition of human recombinant MAP2K2 at 40 nM related to control ULK1
Dual specificity mitogen-activated protein kinase kinase 2 (Homo sapiens), sequence (P36507 whole entry): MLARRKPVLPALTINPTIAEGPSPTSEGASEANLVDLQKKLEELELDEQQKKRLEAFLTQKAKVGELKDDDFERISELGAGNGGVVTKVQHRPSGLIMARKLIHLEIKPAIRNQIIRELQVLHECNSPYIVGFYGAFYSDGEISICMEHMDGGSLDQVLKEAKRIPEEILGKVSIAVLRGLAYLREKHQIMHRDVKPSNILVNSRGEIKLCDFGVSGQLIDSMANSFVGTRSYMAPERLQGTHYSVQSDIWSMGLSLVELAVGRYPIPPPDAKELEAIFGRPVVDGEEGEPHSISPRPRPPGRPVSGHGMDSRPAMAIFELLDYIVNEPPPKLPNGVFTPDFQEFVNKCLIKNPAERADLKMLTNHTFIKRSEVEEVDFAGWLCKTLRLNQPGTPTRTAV

[3] = biological target: T2, Serine/threonine-protein kinase ULK2 (Homo sapiens) (UniProt Q8IYT8); test: Inhibition of human recombinant ULK2 at 40 nM related to control ULK1
T2 sequence (whole entry): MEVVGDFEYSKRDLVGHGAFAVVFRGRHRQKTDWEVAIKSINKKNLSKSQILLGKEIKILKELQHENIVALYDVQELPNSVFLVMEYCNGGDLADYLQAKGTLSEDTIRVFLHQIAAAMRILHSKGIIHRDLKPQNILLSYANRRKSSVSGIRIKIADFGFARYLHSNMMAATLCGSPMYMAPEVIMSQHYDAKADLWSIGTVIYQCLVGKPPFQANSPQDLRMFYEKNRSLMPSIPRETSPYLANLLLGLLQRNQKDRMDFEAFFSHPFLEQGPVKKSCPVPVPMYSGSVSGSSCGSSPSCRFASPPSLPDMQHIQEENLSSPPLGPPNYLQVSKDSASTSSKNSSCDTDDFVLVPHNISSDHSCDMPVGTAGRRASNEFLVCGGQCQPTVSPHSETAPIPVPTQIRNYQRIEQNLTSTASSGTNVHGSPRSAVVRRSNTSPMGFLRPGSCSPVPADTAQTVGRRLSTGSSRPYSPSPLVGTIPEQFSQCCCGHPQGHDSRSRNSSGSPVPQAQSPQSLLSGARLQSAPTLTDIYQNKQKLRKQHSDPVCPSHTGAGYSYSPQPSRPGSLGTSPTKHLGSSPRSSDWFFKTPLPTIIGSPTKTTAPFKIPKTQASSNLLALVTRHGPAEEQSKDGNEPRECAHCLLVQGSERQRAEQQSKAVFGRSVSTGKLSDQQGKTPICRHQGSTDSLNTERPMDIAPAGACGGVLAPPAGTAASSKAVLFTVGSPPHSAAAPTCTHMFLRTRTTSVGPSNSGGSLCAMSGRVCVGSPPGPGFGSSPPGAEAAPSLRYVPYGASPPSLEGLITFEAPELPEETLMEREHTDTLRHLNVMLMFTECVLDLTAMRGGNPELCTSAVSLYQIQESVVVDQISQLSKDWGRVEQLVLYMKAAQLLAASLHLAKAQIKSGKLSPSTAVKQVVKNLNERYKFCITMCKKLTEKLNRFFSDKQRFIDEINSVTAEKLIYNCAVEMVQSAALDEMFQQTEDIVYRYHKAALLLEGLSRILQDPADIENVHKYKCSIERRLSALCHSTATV

[4] = biological target: T3, Serine/threonine-protein kinase 17B (Homo sapiens) (UniProt O94768); test: Inhibition of human recombinant DRAK2 at 500 nM in presence of ATP by radiometric assay relative to control
T3 sequence (whole entry): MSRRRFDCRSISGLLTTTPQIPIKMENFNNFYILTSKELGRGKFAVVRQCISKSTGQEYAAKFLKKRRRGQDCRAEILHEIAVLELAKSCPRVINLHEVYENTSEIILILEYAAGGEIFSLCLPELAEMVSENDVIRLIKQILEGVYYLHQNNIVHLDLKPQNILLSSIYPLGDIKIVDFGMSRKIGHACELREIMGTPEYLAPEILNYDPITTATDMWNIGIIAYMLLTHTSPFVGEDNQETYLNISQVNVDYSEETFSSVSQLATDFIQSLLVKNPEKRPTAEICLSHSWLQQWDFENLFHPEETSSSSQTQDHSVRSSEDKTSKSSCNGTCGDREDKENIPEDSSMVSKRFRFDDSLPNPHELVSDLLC

[5] = biological target: Serine/threonine-protein kinase MRCK alpha (Homo sapiens) (UniProt Q5VT25); test: Inhibition of human recombinant MRCKa at 500 nM in presence of ATP by radiometric assay relative to control
Serine/threonine-protein kinase MRCK alpha (Homo sapiens), sequence (Q5VT25 whole entry): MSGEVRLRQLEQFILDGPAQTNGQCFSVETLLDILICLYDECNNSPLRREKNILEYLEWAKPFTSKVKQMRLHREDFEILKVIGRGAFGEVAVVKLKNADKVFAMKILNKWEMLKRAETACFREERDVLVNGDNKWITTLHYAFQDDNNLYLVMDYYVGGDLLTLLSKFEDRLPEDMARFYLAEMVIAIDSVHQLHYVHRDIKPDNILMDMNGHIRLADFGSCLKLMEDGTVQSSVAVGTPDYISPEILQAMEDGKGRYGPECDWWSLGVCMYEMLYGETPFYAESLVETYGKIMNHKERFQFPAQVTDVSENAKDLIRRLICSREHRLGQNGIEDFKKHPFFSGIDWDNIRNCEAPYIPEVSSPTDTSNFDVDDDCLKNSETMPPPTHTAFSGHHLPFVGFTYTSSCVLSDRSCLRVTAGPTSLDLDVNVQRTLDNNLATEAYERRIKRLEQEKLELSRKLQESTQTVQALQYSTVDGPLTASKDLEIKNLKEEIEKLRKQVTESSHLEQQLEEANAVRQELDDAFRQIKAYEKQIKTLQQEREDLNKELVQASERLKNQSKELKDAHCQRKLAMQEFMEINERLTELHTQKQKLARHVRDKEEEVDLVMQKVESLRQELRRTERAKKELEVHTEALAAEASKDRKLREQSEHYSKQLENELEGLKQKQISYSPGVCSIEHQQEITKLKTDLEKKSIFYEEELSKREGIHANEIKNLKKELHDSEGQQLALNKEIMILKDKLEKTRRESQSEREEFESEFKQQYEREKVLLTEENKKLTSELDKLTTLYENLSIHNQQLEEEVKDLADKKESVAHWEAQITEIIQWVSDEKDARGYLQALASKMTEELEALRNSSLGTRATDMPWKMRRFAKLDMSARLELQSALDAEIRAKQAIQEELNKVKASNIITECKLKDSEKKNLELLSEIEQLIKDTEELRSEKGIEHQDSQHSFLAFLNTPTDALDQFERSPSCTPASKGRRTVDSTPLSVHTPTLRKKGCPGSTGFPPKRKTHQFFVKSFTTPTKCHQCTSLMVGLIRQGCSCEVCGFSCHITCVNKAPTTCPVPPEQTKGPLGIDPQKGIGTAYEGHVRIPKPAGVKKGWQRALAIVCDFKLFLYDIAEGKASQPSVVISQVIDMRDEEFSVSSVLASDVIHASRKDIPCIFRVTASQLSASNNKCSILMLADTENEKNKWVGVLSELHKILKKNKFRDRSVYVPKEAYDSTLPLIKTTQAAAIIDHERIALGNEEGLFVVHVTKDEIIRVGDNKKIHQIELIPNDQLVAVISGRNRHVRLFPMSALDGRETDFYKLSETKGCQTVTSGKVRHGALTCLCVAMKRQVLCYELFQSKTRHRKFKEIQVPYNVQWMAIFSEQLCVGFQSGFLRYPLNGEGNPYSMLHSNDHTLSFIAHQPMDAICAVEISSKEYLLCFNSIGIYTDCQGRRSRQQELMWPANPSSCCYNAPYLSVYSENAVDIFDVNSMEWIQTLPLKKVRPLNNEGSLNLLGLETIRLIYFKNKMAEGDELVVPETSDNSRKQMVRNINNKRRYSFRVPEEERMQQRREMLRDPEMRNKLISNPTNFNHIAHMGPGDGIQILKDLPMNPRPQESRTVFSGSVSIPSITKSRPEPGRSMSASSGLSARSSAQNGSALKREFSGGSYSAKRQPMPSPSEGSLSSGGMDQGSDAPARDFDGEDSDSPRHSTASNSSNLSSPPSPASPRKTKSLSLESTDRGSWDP

[6] = biological target: SRSF protein kinase 1 (Homo sapiens) (UniProt Q96SB4); test: Inhibition of human recombinant SRPK1 at 500 nM in presence of ATP by radiometric assay relative to control
SRSF protein kinase 1 (Homo sapiens), sequence (Q96SB4 whole entry): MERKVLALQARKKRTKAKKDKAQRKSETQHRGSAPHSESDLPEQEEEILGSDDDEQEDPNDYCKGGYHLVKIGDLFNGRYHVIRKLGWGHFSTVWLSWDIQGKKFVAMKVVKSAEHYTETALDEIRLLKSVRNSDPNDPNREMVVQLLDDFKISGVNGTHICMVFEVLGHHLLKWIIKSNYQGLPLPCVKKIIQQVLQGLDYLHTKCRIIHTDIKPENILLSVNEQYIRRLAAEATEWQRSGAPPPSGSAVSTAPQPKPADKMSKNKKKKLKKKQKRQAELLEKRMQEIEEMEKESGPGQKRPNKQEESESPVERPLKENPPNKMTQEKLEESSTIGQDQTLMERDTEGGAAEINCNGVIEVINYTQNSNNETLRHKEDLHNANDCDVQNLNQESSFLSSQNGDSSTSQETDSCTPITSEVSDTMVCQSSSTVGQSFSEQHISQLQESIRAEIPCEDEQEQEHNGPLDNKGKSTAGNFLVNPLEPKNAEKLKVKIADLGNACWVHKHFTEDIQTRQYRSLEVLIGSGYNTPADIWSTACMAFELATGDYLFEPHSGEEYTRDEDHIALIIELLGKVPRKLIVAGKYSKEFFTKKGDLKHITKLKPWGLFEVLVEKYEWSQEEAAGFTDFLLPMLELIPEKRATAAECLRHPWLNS

[7] = biological target: G protein-coupled receptor kinase 5 (Homo sapiens) (UniProt P34947); test: Inhibition of human recombinant GPRK5 at 500 nM related to control ULK1
G protein-coupled receptor kinase 5 (Homo sapiens), sequence (P34947 whole entry, looked up): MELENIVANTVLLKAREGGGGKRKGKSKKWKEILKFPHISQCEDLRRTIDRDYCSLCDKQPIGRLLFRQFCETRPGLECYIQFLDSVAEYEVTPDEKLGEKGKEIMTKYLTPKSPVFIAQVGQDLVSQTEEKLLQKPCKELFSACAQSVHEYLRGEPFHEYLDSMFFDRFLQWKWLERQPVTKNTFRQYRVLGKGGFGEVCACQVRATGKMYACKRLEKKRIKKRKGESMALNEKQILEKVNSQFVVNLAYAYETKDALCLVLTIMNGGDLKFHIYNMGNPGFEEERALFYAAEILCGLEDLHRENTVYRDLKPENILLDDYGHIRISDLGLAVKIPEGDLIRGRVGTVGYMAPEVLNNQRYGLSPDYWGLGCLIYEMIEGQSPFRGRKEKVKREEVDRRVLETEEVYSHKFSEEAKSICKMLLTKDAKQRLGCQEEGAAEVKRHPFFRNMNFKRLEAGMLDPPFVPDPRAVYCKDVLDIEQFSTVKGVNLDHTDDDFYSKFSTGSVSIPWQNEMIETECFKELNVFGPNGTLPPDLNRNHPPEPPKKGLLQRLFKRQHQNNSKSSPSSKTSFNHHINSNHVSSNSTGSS

[8] = biological target: Serine/threonine-protein kinase pim-2 (Homo sapiens) (UniProt Q9P1W9); test: Inhibition of human recombinant PIM2 at 500 nM related to control ULK1
Serine/threonine-protein kinase pim-2 (Homo sapiens), sequence (Q9P1W9 whole entry, looked up): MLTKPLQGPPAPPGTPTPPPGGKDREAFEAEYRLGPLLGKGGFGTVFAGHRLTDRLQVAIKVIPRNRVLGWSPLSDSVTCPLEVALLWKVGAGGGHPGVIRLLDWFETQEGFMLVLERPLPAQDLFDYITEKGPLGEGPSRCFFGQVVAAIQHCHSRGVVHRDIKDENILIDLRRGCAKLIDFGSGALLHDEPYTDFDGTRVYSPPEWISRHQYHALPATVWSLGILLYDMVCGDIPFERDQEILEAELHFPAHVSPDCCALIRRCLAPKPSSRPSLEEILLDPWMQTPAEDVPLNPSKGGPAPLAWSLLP

[9] = biological target: Rhodopsin kinase GRK7 (Homo sapiens) (UniProt Q8WTQ7); test: Inhibition of human recombinant GPRK7 at 500 nM in presence of ATP by radiometric assay relative to control
Rhodopsin kinase GRK7 (Homo sapiens), sequence (Q8WTQ7 whole entry, looked up): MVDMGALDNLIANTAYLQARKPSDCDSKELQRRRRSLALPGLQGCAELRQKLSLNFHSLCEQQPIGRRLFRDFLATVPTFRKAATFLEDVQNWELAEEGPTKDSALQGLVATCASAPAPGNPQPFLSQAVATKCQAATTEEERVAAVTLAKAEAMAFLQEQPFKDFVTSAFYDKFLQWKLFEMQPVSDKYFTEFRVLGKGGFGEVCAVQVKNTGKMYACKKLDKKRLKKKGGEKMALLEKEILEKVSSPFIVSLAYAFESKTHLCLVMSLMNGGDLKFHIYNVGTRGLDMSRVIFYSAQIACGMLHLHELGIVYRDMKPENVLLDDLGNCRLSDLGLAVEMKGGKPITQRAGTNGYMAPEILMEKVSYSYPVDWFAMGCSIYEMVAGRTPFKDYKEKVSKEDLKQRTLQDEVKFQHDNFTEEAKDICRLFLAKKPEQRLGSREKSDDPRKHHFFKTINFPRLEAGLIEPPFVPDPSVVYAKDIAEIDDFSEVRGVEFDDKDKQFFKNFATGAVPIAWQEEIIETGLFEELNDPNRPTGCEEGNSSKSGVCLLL

inhibition [1] [%]	fold change (FC) [2]	fold change (FC) [3]	inhibition [4] [%]	inhibition [5] [%]	inhibition [6] [%]	fold change (FC) [7]	fold change (FC) [8]	inhibition [9] [%]	SMILES
0	0	0.63	–	–	–	–	–	–	O=C(N[C@@H](C1CC1)C(F)(F)F)c1cc(-c2cnn3cc(-c4ccc(F)cc4)cnc23)cs1
–	–	–	6	7	10	0.01	0.03	10	CNC(=O)c1ccccc1Oc1nc(Nc2cc(OC)c(OC)c(OC)c2)ncc1Br
